Consider ten sequences from patent US12551573B2, “Compositions and methods for the targeting of PCSK9” (Scribe Therapeutics Inc., priority 2022, dated 2026).

For this data set, the system named is human PCSK9 locus. The data set can be described thus: Secreted PCSK9 by ELISA (normalized to total cell count) in Huh7 cells transfected with mRNA and gRNA. It counts as cell-based. To be noted: paired with LTRP5-ADD-ZIM3 mRNA, Huh7 cells, 6 days post-transfection; for Secreted PCSK9: normalized to total cell count; for Percent reduction in PCSK9 secretion: relative to non-targeting gRNA control; for Average percent reduction in PCSK9 secretion: averaged from the two doses. On the procedure:
To assess PCSK9 secretion, seeded Huh7 cells were transfected with mRNA encoding a catalytically-active CasX 676, dXR1, or LTRP5-ADD-ZIM3 and a gRNA with scaffold 316 and spacer targeting either the B2M or PCSK9 locus. Media supernatant was harvested at 6, 18, 36, and 87 days post-transfection to assess level of PCSK9 secretion by ELISA. Levels of PCSK9 secretion were normalized to total cell count. As an additional control, PCSK9 secretion was also measured in the media supernatant harvested from wells containing untreated, naïve cells.
The following three human hepatocyte cancer cell lines were used in this experiment: HepG2 cells, Hep3B cells, and Huh7 cells. ˜15,000 cells of each cell line were seeded per well; the next day, seeded cells were transfected with mRNA encoding a catalytically-active CasX 676, dXR1, or LTRP5-ADD-ZIM3 and a gRNA with scaffold 316 and spacer targeting either the B2M or PCSK9 locus (see Table 23 for specific spacers and sequences). Media supernatant was harvested at 4 days post-transfection to assess level of PCSK9 secretion by ELISA, and levels of PCSK9 secretion were normalized to total cell count and illustrated in FIGS. 11A-11C. Culturing of treated Huh7 cells continued, and media supernatant was harvested at 14 and 27 days post-transfection for measuring PCSK9 secretion by ELISA. As an additional experimental control, PCSK9 secretion was also measured in the media supernatant harvested from wells containing untreated, naïve cells.
To assess PCSK9 secretion, seeded Huh7 cells were co-transfected with mRNA encoding for LTRP5-ADD-ZIM3 and a gRNA with scaffold 316 and spacer targeting the PCSK9 locus using Lipofectamine™ 3000. Two doses of total RNA input at a 2:1 mass ratio of mRNA to gRNA were used for screening: 50 ng mRNA: 25 ng gRNA and 25 ng mRNA: 12.5 ng gRNA. Media supernatant was harvested at 6 days post-transfection to assess level of PCSK9 secretion by ELISA (Table 74). Levels of PCSK9 secretion were normalized to total cell count. As an additional control, PCSK9 secretion was also measured in the media supernatant harvested from cells transfected with mRNA encoding for mScarlet.

For the sequence “GAAUUCUAUGGUAGGCACAA (listed as RNA, chemistry not given here) [spacer 6.134, Promoter]”, the “Average percent reduction in PCSK9 secretion” value (from here on “Average percent reduction”) is listed as 33.07%. Where the note is “25 ng mRNA:12.5 ng gRNA”, the “Secreted PCSK9” value came out at 57.45 ng/mL and the “Percent reduction in PCSK9 secretion” value is 19.37%. Where the note is “50 ng mRNA:25 ng gRNA”, the “Secreted PCSK9” value is 43.79 ng/mL and the “Percent reduction in PCSK9 secretion” value is given as 46.77%.

As for “GAGCAGGCCAUUUCACUCGG (listed as RNA, chemistry not given here) [spacer 6.119, Promoter]”, the “Average percent reduction” value is given as 2.1%. For the same sequence, for the setting “25 ng mRNA:12.5 ng gRNA”, the “Secreted PCSK9” value was found to be 84.54 ng/mL and the “Percent reduction in PCSK9 secretion” value turned out to be 18.66%. Moreover, for the setting “50 ng mRNA:25 ng gRNA”, the “Secreted PCSK9” value is reported as 70.37 ng/mL and the “Percent reduction in PCSK9 secretion” value stood at 14.47%.

Turning to “GAGUGAAAUGGCCUGCUCUG (listed as RNA, chemistry not given here) [spacer 6.118, Promoter]”, the “Average percent reduction” value amounted to 39.99%. In addition, under “25 ng mRNA:12.5 ng gRNA”, the “Secreted PCSK9” value turned out to be 54.78 ng/mL and the “Percent reduction in PCSK9 secretion” value came to 23.11%. Under “50 ng mRNA:25 ng gRNA”, the “Secreted PCSK9” value came to 35.5 ng/mL and the “Percent reduction in PCSK9 secretion” value is 56.86%.

On to “GCAGCGACGUCGAGGCGCUC (listed as RNA, chemistry not given here) [spacer 6.155, Exon 1]”, for which the “Average percent reduction” value was found to be 42.55%. Also, for the setting “25 ng mRNA:12.5 ng gRNA”, the “Secreted PCSK9” value stood at 56.36 ng/mL and the “Percent reduction in PCSK9 secretion” value amounted to 20.89%. Further, for the setting “50 ng mRNA:25 ng gRNA”, the “Secreted PCSK9” value is 29.45 ng/mL and the “Percent reduction in PCSK9 secretion” value worked out at 64.21%.

Regarding “GCCAGGCCGUCCUCCUCGGA (listed as RNA, chemistry not given here) [spacer 6.4, Exon 1]”, the “Average percent reduction” value came out at 15.41%. Moreover, for the setting “25 ng mRNA:12.5 ng gRNA”, the “Secreted PCSK9” value amounted to 73.05 ng/mL and the “Percent reduction in PCSK9 secretion” value stood at 2.54%. Where the note is “50 ng mRNA:25 ng gRNA”, the “Secreted PCSK9” value is given as 54.83 ng/mL and the “Percent reduction in PCSK9 secretion” value was 33.35%.

Turning to “GCCGGGCCCACCUUUUCAGU (listed as RNA, chemistry not given here) [spacer 6.148, Promoter]”, the “Average percent reduction” value came to 25.15%. Also, under “25 ng mRNA:12.5 ng gRNA”, the “Secreted PCSK9” value came to 44.77 ng/mL and the “Percent reduction in PCSK9 secretion” value is recorded as 37.16%. Moreover, for the setting “50 ng mRNA:25 ng gRNA”, the “Secreted PCSK9” value is 71.46 ng/mL and the “Percent reduction in PCSK9 secretion” value turned out to be 13.15%.

Regarding “GCCUCGCCCUCCCCAAACAG (listed as RNA, chemistry not given here) [spacer 6.152, Promoter]”, the “Average percent reduction” value amounted to 37.24%. Where the note is “25 ng mRNA:12.5 ng gRNA”, the “Secreted PCSK9” value came out at 57.43 ng/mL and the “Percent reduction in PCSK9 secretion” value is listed as 19.39%. Under “50 ng mRNA:25 ng gRNA”, the “Secreted PCSK9” value is 36.95 ng/mL and the “Percent reduction in PCSK9 secretion” value came out at 55.09%.

For the sequence “GCGCGCCCCUUCACGCGCCC (listed as RNA, chemistry not given here) [spacer 6.159, Exon 1]”, the “Average percent reduction” value turned out to be 10.97%. Moreover, for the setting “25 ng mRNA:12.5 ng gRNA”, the “Secreted PCSK9” value amounted to 80.84 ng/mL and the “Percent reduction in PCSK9 secretion” value came to 13.47%. Besides, under “50 ng mRNA:25 ng gRNA”, the “Secreted PCSK9” value is recorded as 53.15 ng/mL and the “Percent reduction in PCSK9 secretion” value is recorded as 35.4%.

Consider “GCUCCUGCACAGUCCUCCCC (listed as RNA, chemistry not given here) [spacer 6.161, Exon 1]”, for which the “Average percent reduction” value came out at 44.73%. In addition, for the setting “25 ng mRNA:12.5 ng gRNA”, the “Secreted PCSK9” value is given as 53.16 ng/mL and the “Percent reduction in PCSK9 secretion” value came out at 25.38%. In addition, for the setting “50 ng mRNA:25 ng gRNA”, the “Secreted PCSK9” value is 29.55 ng/mL and the “Percent reduction in PCSK9 secretion” value worked out at 64.08%.

For “GCUGAAACAGAUGGAAUACU (listed as RNA, chemistry not given here) [spacer 6.172, Intron 1]”, the “Average percent reduction” value is 31.37%. Where the note is “25 ng mRNA:12.5 ng gRNA”, the “Secreted PCSK9” value is listed as 59.31 ng/mL and the “Percent reduction in PCSK9 secretion” value is listed as 16.75%. Further, for the setting “50 ng mRNA:25 ng gRNA”, the “Secreted PCSK9” value was 44.44 ng/mL and the “Percent reduction in PCSK9 secretion” value is listed as 45.99%.
